Values joined by “and” are separate entries in the source; they are usually repeats but may differ in a detail not shown here. Equal entries are not always repeated. Where two headings read alike, the source gives them in different places.
What was measured:
Assay type in all cases: biochemical
hSULT1A3 = molecular target: T1, hSULT1A3 (Homo sapiens, UniProt P0DMM9); test: Fluorescence-based microplate inhibition assay, hSULT1A3-catalyzed HN-241 4-O-sulfation; conditions: for activity at 10 µM: read-out: Residue activity (%) hSULT1A3; for IC50: hSULT1A3-catalyzed HN-241 4-O-sulfation
T1 construct: 6-histidine tag (N); TEV site (N); made in house; host or cells: Escherichia coli BL21 (DE3), pET29a(+)

hSULT1A2 = molecular target: T2, hSULT1A2 (Homo sapiens, UniProt P50226); test: Fluorescence-based microplate inhibition assay, hSULT1A2-catalyzed HN-241 4-O-sulfation; conditions: for remaining activity at 10 µM: 0.25 h, read-out: Residue activity (%) hSULT1A2
T2 construct: 6-histidine tag (N); TEV site (N); made in house; host or cells: Escherichia coli BL21 (DE3), pET29a(+)

hSULT1A1 = molecular target: T3, hSULT1A1 (Homo sapiens, UniProt P50225); test: Fluorescence-based microplate inhibition assay, hSULT1A1-catalyzed HN-241 4-O-sulfation; conditions: for activity at 1 µM: read-out: Residue activity (%) hSULT1A1; for IC50: hSULT1A1-catalyzed HN-241 4-O-sulfation;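 as to all read-outs here: reaction started with 200 µM PAPS at 37 °C, fluorescence read continuously (Ex 350 nm, Em 450 nm), activity expressed relative to DMSO-only control without inhibitor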
T3 construct: 6-histidine tag (N); TEV site (N); made in house; host or cells: Escherichia coli BL21 (DE3), pET29a(+)

[1] = test compound 10 μM, HN-241 10 μM, 15 min
[2] = test compound 10 μM, HN-241 5 μM, 15 min
[3] = test compound 1 μM, HN-241 1 μM, 15 min
[4] = hSULT1A2-catalyzed HN-241 4-O-sulfation

T2 sequence (P50226 whole entry): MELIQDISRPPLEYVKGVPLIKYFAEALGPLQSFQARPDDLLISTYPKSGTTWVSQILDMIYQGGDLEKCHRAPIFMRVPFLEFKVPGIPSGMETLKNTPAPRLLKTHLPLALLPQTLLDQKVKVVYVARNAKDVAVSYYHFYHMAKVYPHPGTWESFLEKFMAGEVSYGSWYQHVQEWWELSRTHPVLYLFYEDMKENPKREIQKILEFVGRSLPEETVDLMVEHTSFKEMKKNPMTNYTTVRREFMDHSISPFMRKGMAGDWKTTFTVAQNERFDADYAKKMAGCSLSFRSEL
T1 sequence (P0DMM9 whole entry): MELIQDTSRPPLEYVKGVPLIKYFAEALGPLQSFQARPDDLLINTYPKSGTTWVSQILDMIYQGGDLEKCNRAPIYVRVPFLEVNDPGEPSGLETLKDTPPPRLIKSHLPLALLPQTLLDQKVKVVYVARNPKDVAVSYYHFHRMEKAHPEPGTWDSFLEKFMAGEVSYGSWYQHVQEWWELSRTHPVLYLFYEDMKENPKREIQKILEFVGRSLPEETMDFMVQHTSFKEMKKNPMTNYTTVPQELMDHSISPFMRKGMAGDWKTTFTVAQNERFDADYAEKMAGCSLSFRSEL
T3 sequence (P50225 whole entry): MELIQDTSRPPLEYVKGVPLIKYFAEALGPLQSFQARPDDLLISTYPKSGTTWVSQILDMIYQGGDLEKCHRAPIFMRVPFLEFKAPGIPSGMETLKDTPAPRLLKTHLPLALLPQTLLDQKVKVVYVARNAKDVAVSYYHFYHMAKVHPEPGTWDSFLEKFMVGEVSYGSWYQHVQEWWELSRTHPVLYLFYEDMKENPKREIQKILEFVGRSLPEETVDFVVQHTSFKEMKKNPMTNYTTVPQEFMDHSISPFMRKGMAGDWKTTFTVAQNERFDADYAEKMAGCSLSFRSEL

Compound | activity at 10 µM (hSULT1A3; [1]) [%] | remaining activity at 10 µM (hSULT1A2; [2]) [%] | activity at 1 µM (hSULT1A1; [3]) [%] | Residue activity (%) hSULT1A3 (hSULT1A3; [1]) | Residue activity (%) hSULT1A2 (hSULT1A2; [2]) | Residue activity (%) hSULT1A1 (hSULT1A1; [3]) | other results
O=C1C=CC(=O)c2cc3ccccc3cc21 [1,4-Anthracenedione] | – | – | – | 94.23% | 1.06% | 29.15% | –
COc1cc2c(c(O)c1OC)C(=O)c1c(cc(C)c(O)c1OC)C2=O [1,7-Dihydroxy-2,3,8-trimethoxy-6-methylanthracene-9,10-dione] | – | – | – | 61.63% | 0.20% | 0.00% | –
C[C@]12CC[C@H](O)C[C@@]1(O)CC[C@@H]1[C@@H]2CC[C@]2(C)[C@@H](c3ccc(=O)oc3)CC[C@]12O [3β,5,14-Trihydroxy-5β-bufa-20,22-dienolide] | – | – | – | 114.49% | 109.91% | 121.35% | –
COc1ccc(/C=C/C(=O)c2ccccc2)cc1 [4-Methoxychalcone] | – | – | – | – | 75.95% | 78.44% | –
O=c1cc(-c2ccccc2)oc2ccc(O)c(O)c12 [5,6-Dihydroxy-2-phenylchromen-4-one] | – | – | – | 68.42% | 8.07% | 18.14% | –
CC(C)=CCC[C@@](C)(O)[C@H]1CC[C@]2(C)[C@@H]1[C@H](O)C[C@@H]1[C@@]3(C)CC[C@H](O)C(C)(C)[C@@H]3[C@@H](O[C@@H]3O[C@H](CO)[C@@H](O)[C@H](O)[C@H]3O[C@@H]3O[C@@H](C)[C@H](O)[C@@H](O)[C@H]3O)C[C@]12C [20(R)-Ginsenoside Rg2] | – | – | – | 122.28% | 104.32% | 104.07% | –
CC(C)=CCC[C@@](C)(O)[C@H]1CC[C@]2(C)[C@@H]1[C@H](O)C[C@@H]1[C@@]3(C)CC[C@H](O[C@@H]4O[C@H](CO)[C@@H](O)[C@H](O)[C@H]4O)C(C)(C)[C@@H]3CC[C@]12C [20(R)-Ginsenoside Rh2] | – | – | – | 116.23% | 114.69% | 98.01% | –
CC(C)=CCC[C@@](C)(O)[C@H]1CC[C@]2(C)[C@@H]1[C@H](O)C[C@@H]1[C@@]3(C)CC[C@H](O)C(C)(C)[C@@H]3[C@@H](O[C@@H]3O[C@H](CO)[C@@H](O)[C@H](O)[C@H]3O[C@@H]3OC[C@@H](O)[C@H](O)[C@H]3O)C[C@]12C [20(R)-Notoginsenoside R2] | – | – | – | 100.25% | 109.60% | 110.54% | –
CC(C)=CCC[C@](C)(O)[C@H]1CC[C@]2(C)[C@@H]1[C@H](O)C[C@@H]1[C@@]3(C)CC[C@H](O[C@@H]4O[C@H](CO)[C@@H](O)[C@H](O)[C@H]4O)C(C)(C)[C@@H]3CC[C@]12C [20(S)-Ginsenoside Rh2] | – | – | – | 105.44% | 110.74% | 85.94% | –
CC(C)=CCC[C@@](C)(O)[C@H]1CC[C@]2(C)[C@@H]1[C@H](O)C[C@@H]1[C@@]3(C)CC[C@H](O)C(C)(C)[C@@H]3CC[C@]12C [(20R)-Protopanaxdiol] | – | – | – | 110.20% and 105.48% | 97.81% and 101.25% | 99.25% and 99.62% | –
CC(C)=CCC[C@](C)(O)[C@H]1CC[C@]2(C)[C@@H]1[C@H](O)C[C@@H]1[C@@]3(C)CC[C@H](O)C(C)(C)[C@@H]3CC[C@]12C [(20S)-Protopanaxdiol] | – | – | – | 81.62% | 95.73% | 99.75% | –
O=C(/C=C/C=C/c1ccccc1)CCc1ccccc1 [Alnustone] | – | – | – | 111.42% | 80.60% | 74.39% | –
O=C1c2cccc(O)c2C(=O)c2c(O)cc(CO)cc21 [Aloeemodin] | 61.3 | 0 | 0.21 | – | – | – | IC50 (hSULT1A2; [4]): 118 ± 7.2 nM
O=C1CCC[C@@H]2[C@H]3CCC[N@+]4([O-])CCC[C@@H](CN12)[C@@H]34 [Ammothamnine] | – | – | – | 100.34% | 96.56% | 99.18% | –
O=c1cc(-c2ccccc2)oc2cc(O)c(O)c(O)c12 [Baicalein] | – | – | – | – | – | – | IC50 (hSULT1A3): 6320 ± 195 nM; IC50 (hSULT1A1): 45.2 ± 3.91 nM
C[C@]12CC[C@H](O)C[C@H]1CC[C@@H]1[C@@H]2CC[C@]2(C)[C@@H](c3ccc(=O)oc3)CC[C@]12O [Bufalin] | – | – | – | – | – | – | activity at 10 µM (hSULT1A3): 124%; remaining activity at 10 µM (hSULT1A2): 106%; activity at 1 µM (hSULT1A1): 103%
COc1ccc(-c2coc3cc(O[C@@H]4O[C@H](CO)[C@@H](O)[C@H](O)[C@H]4O)ccc3c2=O)cc1O [Calycosin-7-O-β-D-glucoside] | – | – | – | 54.16% | 22.81% | 2.77% | –
COc1cc(O)cc(O)c1C(=O)/C=C/c1ccccc1 [Cardamonin] | – | – | – | 120.65% and 88.76% | 34.41% and 31.76% | 63.24% and 71.38% | –
C[C@H]1C(=O)O[C@@H]2CCN3CC=C(COC(=O)[C@](C)(O)[C@]1(C)O)[C@H]23 [Crotaline] | – | – | – | 122.18% | 97.30% | 128.03% | –
COc1cc(O)c2c(c1)C(=O)c1cc(C)cc(O)c1C2=O [Emodin-3-methyl ether] | – | – | – | 103.18% | 89.81% | 54.41% | –
Cc1cc(O)c2c(c1)C(=O)c1cc(O)cc(O)c1C2=O [Emodin] | 65 | 0 | 0 | – | – | – | IC50 (hSULT1A2; [4]): 360 ± 22.6 nM; IC50 (hSULT1A1): 76.5 ± 5.28 nM
COc1ccc(-c2oc3c(CC=C(C)C)c(O[C@@H]4O[C@H](CO)[C@@H](O)[C@H](O)[C@H]4O)cc(O)c3c(=O)c2O[C@@H]2O[C@@H](C)[C@H](O)[C@@H](O)[C@H]2O[C@@H]2O[C@@H](C)[C@H](O)[C@@H](O)[C@H]2O)cc1 [Epimedin C] | – | – | – | 107.48% | 95.77% | 108.62% | –
COC[C@]12CN(C)[C@@H]3[C@@H]4[C@H](OC)[C@H]1[C@@]3([C@@H](OC)C[C@H]2O)[C@@H]1C[C@@]2(O)[C@H](OC(=O)c3ccccc3)[C@@H]1[C@]4(OC(C)=O)[C@@H](O)[C@@H]2OC [Mesaconitine] | – | – | – | 110.31% | 114.51% | – | –
CC(C)=CCC[C@](C)(O)[C@H]1CC[C@]2(C)[C@@H]1[C@H](O)C[C@@H]1[C@@]3(C)CC[C@H](O)C(C)(C)[C@@H]3[C@@H](O[C@@H]3O[C@H](CO)[C@@H](O)[C@H](O)[C@H]3O[C@@H]3OC[C@@H](O)[C@H](O)[C@H]3O)C[C@]12C [Notoginsenoside R2] | – | – | – | – | 108.58% | 105.59% | –

Second part, led by results:

activity at 10 µM (hSULT1A3; [1]) [%] | remaining activity at 10 µM (hSULT1A2; [2]) [%] | activity at 1 µM (hSULT1A1; [3]) [%] | Compound | Residue activity (%) hSULT1A3 (hSULT1A3; [1]) | Residue activity (%) hSULT1A2 (hSULT1A2; [2]) | Residue activity (%) hSULT1A1 (hSULT1A1; [3]) | other results
119 | 110 | 107 | COc1c2occc2cc2ccc(=O)oc12 [8-Methoxypsoralen] | – | – | – | –
46.8 | 101 | 41.4 | Oc1cc(O)c2c(c1)O[C@@H](c1ccc(O)c(O)c1)[C@H](O)C2 [(-)-Catechin] | – | – | – | –
58.1 | 0.47 | 0.38 | COc1ccc(-c2cc(=O)c3c(O)cc(O)cc3o2)cc1 [Acacetin] | – | – | – | –
115 | 49.5 | 69.8 | COc1cc(O)cc2c1C(=O)C[C@@H](c1ccccc1)O2 [Alpinetin] | – | – | – | –
45.2 | 0 | 0.45 | COc1c(O)cc2c(c1O)C(=O)c1c(cc(C)c(O)c1OC)C2=O [Aurantio-obtusin] | – | – | – | IC50 (hSULT1A2; [4]): 492 ± 15.2 nM
42.3 | 0 | 24 | COc1ccc(-c2cc(=O)c3c(O)cc(O)cc3o2)cc1-c1c(O)cc(O)c2c(=O)cc(-c3ccc(O)cc3)oc12 [Bilobetin] | – | – | – | IC50 (hSULT1A2; [4]): 55.5 ± 1.3 nM; Inhibition manner (hSULT1A2; inhibition kinetic assay, hSULT1A2-catalyzed HN-241 4-O-sulfation): mixed inhibition
129 | 98.2 | 96.5 | C[C@H](CCC(=O)O)[C@H]1CC[C@H]2[C@@H]3[C@H](O)C[C@@H]4C[C@H](O)CC[C@]4(C)[C@H]3CC[C@]12C [Chenodeoxycholic acid] | – | – | – | –
5.28 | 0.09 | 1.84 | COc1cc2c(c(OC)c1OC)C(=O)c1c(cc(C)c(O)c1OC)C2=O [Chrysoobtusin] | – | – | – | IC50 (hSULT1A3): 1520 ± 79.1 nM
99.3 | 45.4 | 3.52 | Cc1cc(O)c2c(c1)C(=O)c1cccc(O)c1C2=O [Chrysophanic acid] | – | – | – | –
39.1 | 57 | 0 | COc1ccc(-c2cc(=O)c3c(O)cc(O)cc3o2)cc1O [Diosmetin] | – | – | – | –
121 | 111 | 106 | C=C(C)[C@@H]1CC[C@]2(C(=O)O)CC[C@]3(C)[C@H](CC[C@@H]4[C@@]5(C)CC[C@@H](O)C(C)(C)[C@@H]5CC[C@]43C)[C@@H]12 [Epibetulinic acid] | – | – | – | –
104 | 111 | 65.5 | C[C@@H]1O[C@@H](OC[C@H]2O[C@@H](Oc3cc(O)c4c(c3)O[C@H](c3ccc(O)c(O)c3)CC4=O)[C@H](O)[C@@H](O)[C@@H]2O)[C@H](O)[C@H](O)[C@H]1O [Eriocitrin] | – | – | – | –
